# Measured values from patent US8003691B2, “Antiviral and comma antibacterial pharmaceutical compositions of cantharidic anhydride and method of preparation thereof” (priority 2001, dated 2011).
# What was measured:
# [1] = Solubility of cantharidic anhydride in water, fat and essential oil; type: physicochemical
# Description: In the pharmaceutical composition of the present invention, cantharidic anhydride is dissolved in essential oils or single constituent of essential oils to form cantharidic anhydride-essential oil preparation. The cantharidic anhydride has higher solubility in essential oil. […] That is to say, concentration of cantharidic anhydride in essential oil can be 14 times larger than that in fat and more than 200 time larger than that in water.
# tubercule bacillus [2] = type: cell-based
# staphylococcus = type: cell-based
# virus = test: Minimum concentration for virus deactivation; type: cell-based
# [3] = human, in vivo
# tubercule bacillus [4] = details: reported in literature; cited from earlier work
SMILES,concentration of cantharidic anhydride in essential oil relative to that in fat ([1]; essential oil vs fat) [times],concentration of cantharidic anhydride in essential oil relative to that in water ([1]; essential oil vs water),solubility in essential oil ([1]; in essential oil) [%],solubility in fat ([1]; in fat) [%],solubility of cantharidic anhydride in water ([1]; in water),concentration in culture medium that can completely deactivate tubercule bacillus (tubercule bacillus [2]) [ppm],concentration in culture medium that can completely deactivate staphylococcus (staphylococcus) [ppm],minimum concentration for virus deactivation (virus) [ppm],adverse reaction to liver and bone marrow [3],minimum concentration for tubercule bacillus deactivation (tubercule bacillus [4]) [ppm]
"C[C@@]12C(=O)OC(=O)[C@]1(C)[C@H]1CC[C@@H]2O1 [cantharidic anhydride, Cantharidic anhydride]",14,more than 200 time,≤ 0.7,0.05,approximately 0.003%,0.01,0.01,0.000132,does not have adverse reaction to liver and bone marrow,–
[H]/N=C(/N)N[C@H]1[C@H](O)[C@@H](O)[C@H](O[C@@H]2O[C@@H](C)[C@](O)(C=O)[C@H]2O[C@@H]2O[C@@H](CO)[C@H](O)[C@@H](O)[C@@H]2NC)[C@@H](N/C(N)=N\[H])[C@@H]1O [streptomycin],–,–,–,–,–,–,–,–,–,10
